{"source": "patent US9808423B2", "about": "“Preparation of suspension aerosol formulations” (Generics [UK] Limited, priority 2004, dated 2017)", "assay": "Sympatec laser diffraction particle size of micronized medicament", "format": "physicochemical", "conditions": "Sympatec laser diffraction instrument; micronized starting material of Example 10", "protocol": "A stock solution of 16.0 g of ethanol USP and 0.0053 g of oleic acid was prepared. Into each of three 14-mL fluoropolymer (FEP-PES) coated aluminum canisters was added 7 mg of micronized salmeterol xinafoate, having a volume mean diameter (X50) of 1.6 μm as measured using a Sympatec laser diffraction instrument. To each canister was then added 10.0 g of HFA-134a, at about −70° C., and approximately 0.20 g of the stock solution. A 50-μL metering valve was crimp sealed to each canister. Each canister was sonicated for 1.5 minutes to promote mixing of the formulation and deaggregation of the medicament particles.", "data": [{"smiles": "OCc1cc(C(O)CNCCCCCCOCCCCc2ccccc2)ccc1O", "note": "(stereo not shown) [micronized salmeterol xinafoate, salmeterol xinafoate]", "values": [{"measurement": "volume mean diameter (X50)", "value": 1.6, "unit": "μm"}]}]}
